pIC50: −log10 of the molar value. Structures can show the parent of a compound that is named as a salt.
Assays:
Type in all cases: cell-based
[1] = system: N87 (gastric cancer) cells; assay: In vitro cell assay (MTS cell viability), N87; settings: 96 h, free compounds (natural products and synthetic analogs); cell viability 96 hours after treatment
How it was run: (§1)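 Cells seeded 24 h, then treated with antibody-drug conjugates or free drug, 3-fold serial dilutions at 10 concentrations in duplicate. Viability by MTS at 96 h as percent of untreated control; IC50 from four-parameter logistic fit.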

[2] = system: BT474 (breast cancer) cells; assay: In vitro cell assay (MTS cell viability), BT474; settings: Homo sapiens, BT-474; free compounds (natural products and synthetic analogs); cell viability 96 hours after treatment
How it was run: as §1

[3] = system: MDA-MB-468 cells (target non-expressing); assay: In vitro cell assay (MTS cell viability), MDA-MB-468; settings: Homo sapiens, MDA-MB-468, 96 h, read-out: MDA-MB-468 IC50 (nM)
Experimental: Target expressing (BT474 (breast cancer), N87 (gastric cancer), HCC1954 (breast cancer), MDA-MB-361-DYT2 (breast cancer)) or non-expressing (MDA-MB-468) cells were seeded in 96-well cell culture plates for 24 hours before treatment. Cells were treated with 3-fold serially diluted antibody-drug conjugates or free compounds (i.e., no antibody conjugated to the drug) in duplicate at 10 concentrations. Cell viability was determined by CellTiter 96® AQueous One Solution Cell Proliferation MTS Assay (Promega, Madison Wis.) 96 hours after treatment. Relative cell viability was determined as percentage of untreated control. IC50 values were calculated using a four parameter logistic model #203 with XLfit v4.2 (IDBS, Guildford, Surry, UK). The potency ranged upward from 0.0002 nm. Similar procedures and techniques were employed.

[4] = system: MDA-MB-361-DYT2 (breast cancer) cells; assay: In vitro cell assay (MTS cell viability), MDA-MB-361-DYT2; settings: 96 h, free compounds (natural products and synthetic analogs); cell viability 96 hours after treatment
How it was run: as §1

SMILES | pIC50 [1] | pIC50 [2] | IC50 [3] [nM] | pIC50 [4]
CCCNC(=O)C[C@@H]1C[C@@]2(CO2)C[C@@H](/C=C/C(C)=C/C[C@@H]2O[C@H](C)[C@H](NC(=O)/C=C\[C@H](C)OC(C)=O)C[C@@H]2C)O1 [#B64, (2S,3Z)-5-({(2R,3R,5S,6S)-2,5-dimethyl-6-[(2E,4E)-3-methyl-5-{(3S,5S,7S)-7-[2-oxo-2-(propylamino)ethyl]-1,6-dioxaspiro[2.5]oct-5-yl}penta-2,4-dien-1-yl]tetrahydro-2H-pyran-3-yl}amino)-5-oxopent-3-en-2-yl acetate] | 7.61 | 8.28 | 1.38 | 
CC(=O)O[C@@H](C)/C=C\C(=O)N[C@@H]1C[C@H](C)[C@H](C/C=C(C)/C=C/[C@@H]2C[C@]3(CO3)C[C@@H](CC(=O)NCc3ccccc3)O2)O[C@@H]1C [#B101, (2S,3Z)-5-({(2R,3R,5S,6S)-6-[(2E,4E)-5-{(3S,5S,7S)-7-[2-(benzylamino)-2-oxoethyl]-1,6-dioxaspiro[2.5]oct-5-yl}-3-methylpenta-2,4-dien-1-yl]-2,5-dimethyltetrahydro-2H-pyran-3-yl}amino)-5-oxopent-3-en-2-yl acetate] | 7.98 | 7.59 |  | 7.46
CSCCN(C)C(=O)C[C@@H]1C[C@@]2(CO2)C[C@@H](/C=C/C(C)=C/C[C@@H]2O[C@H](C)[C@H](NC(=O)/C=C\[C@H](C)OC(C)=O)C[C@@H]2C)O1 [#B102, (2S,3Z)-5-{[(2R,3R,5S,6S)-2,5-dimethyl-6-{(2E,4E)-3-methyl-5-[(3S,5S,7S)-7-(2-{methyl[2-(methylsulfanyl)ethyl]amino}-2-oxoethyl)-1,6-dioxaspiro[2.5]oct-5-yl]penta-2,4-dien-1-yl}tetrahydro-2H-pyran-3-yl]amino}-5-oxopent-3-en-2-yl acetate] | 8.11 | 7.97 |  | 7.48
CSCCNC(=O)C[C@@H]1C[C@@]2(CO2)C[C@@H](/C=C/C(C)=C/C[C@@H]2O[C@H](C)[C@H](NC(=O)/C=C\[C@H](C)OC(C)=O)C[C@@H]2C)O1 [#B103, (2S,3Z)-5-{[(2R,3R,5S,6S)-2,5-dimethyl-6-{(2E,4E)-3-methyl-5-[(3S,5S,7S)-7-(2-{[2-(methylsulfanyl)ethyl]amino}-2-oxoethyl)-1,6-dioxaspiro[2.5]oct-5-yl]penta-2,4-dien-1-yl}tetrahydro-2H-pyran-3-yl]amino}-5-oxopent-3-en-2-yl acetate] | 8.80 | 8.39 |  | 8.37
CC(=O)O[C@@H](C)/C=C\C(=O)N[C@@H]1C[C@H](C)[C@H](C/C=C(C)/C=C/[C@@H]2C[C@]3(CO3)C[C@@H](CC(=O)NCCS(C)(=O)=O)O2)O[C@@H]1C [#B104, (2S,3Z)-5-{[(2R,3R,5S,6S)-2,5-dimethyl-6-{(2E,4E)-3-methyl-5-[(3S,5S,7S)-7-(2-{[2-(methylsulfonyl)ethyl]amino}-2-oxoethyl)-1,6-dioxaspiro[2.5]oct-5-yl]penta-2,4-dien-1-yl}tetrahydro-2H-pyran-3-yl]amino}-5-oxopent-3-en-2-yl acetate] | 8.85 | 8.40 |  | 8.04
CC(=O)/C=C\C(=O)N[C@@H]1C[C@H](C)[C@H](C/C=C(C)/C=C/[C@@H]2C[C@]3(CO3)C[C@@H](CC(N)=O)O2)O[C@@H]1C [#B129, (2Z)—N-[(2R,3R,5S,6S)-6-{(2E,4E)-5-[(3S,5S,7S)-7-(2-amino-2-oxoethyl)-1,6-dioxaspiro[2.5]oct-5-yl]-3-methylpenta-2,4-dien-1-yl}-2,5-dimethyltetrahydro-2H-pyran-3-yl]-4-oxopent-2-enamide] | < 7.00 | < 7.00 |  | < 7.00
CSCCN(C)C(=O)O[C@@H](C)/C=C\C(=O)N[C@@H]1C[C@H](C)[C@H](C/C=C(C)/C=C/[C@H]2O[C@H](CC(N)=O)C[C@@]3(CO3)[C@@H]2O)O[C@@H]1C [#B130, (2S,3Z)-5-{[(2R,3R,5S,6S)-6-{(2E,4E)-5-[(3R,4R,5R,7S)-7-(2-amino-2-oxoethyl)-4-hydroxy-1,6-dioxaspiro[2.5]oct-5-yl]-3-methylpenta-2,4-dien-1-yl}-2,5-dimethyltetrahydro-2H-pyran-3-yl]amino}-5-oxopent-3-en-2-yl methyl[2-(methylsulfanyl)ethyl]carbamate] | 8.53 | 8.82 |  | 8.35
CC(/C=C/[C@H]1O[C@H](CC(N)=O)C[C@@]2(CO2)[C@@H]1O)=C\C[C@@H]1O[C@H](C)[C@H](NC(=O)/C=C\[C@H](C)OC(=O)N2CCCCC2)C[C@@H]1C [#B134, (2S,3Z)-5-{[(2R,3R,5S,6S)-6-{(2E,4E)-5-[(3R,4R,5R,7S)-7-(2-amino-2-oxoethyl)-4-hydroxy-1,6-dioxaspiro[2.5]oct-5-yl]-3-methylpenta-2,4-dien-1-yl}-2,5-dimethyltetrahydro-2H-pyran-3-yl]amino}-5-oxopent-3-en-2-yl piperidine-1-carboxylate] | 8.74 | 8.93 |  | 8.69
CC(/C=C/[C@@H]1C[C@]2(CO2)C[C@@H](CC(N)=O)O1)=C\C[C@@H]1O[C@H](C)[C@H](NC(=O)/C=C\[C@H](C)OC(=O)N2CCNCC2)C[C@@H]1C [#B136, (2S,3Z)-5-{[(2R,3R,5S,6S)-6-{(2E,4E)-5-[(3S,5S,7S)-7-(2-amino-2-oxoethyl)-1,6-dioxaspiro[2.5]oct-5-yl]-3-methylpenta-2,4-dien-1-yl}-2,5-dimethyltetrahydro-2H-pyran-3-yl]amino}-5-oxopent-3-en-2-yl piperazine-1-carboxylate, acetate salt] | 7.05 | 7.59 |  | < 7.00
CC(/C=C/[C@@H]1C[C@]2(CO2)C[C@@H](CC(N)=O)O1)=C\C[C@@H]1O[C@H](C)[C@H](NC(=O)/C=C\[C@H](C)OC(=O)N2CCN(C)CC2)C[C@@H]1C [#B137, (2S,3Z)-5-{[(2R,3R,5S,6S)-6-{(2E,4E)-5-[(3S,5S,7S)-7-(2-amino-2-oxoethyl)-1,6-dioxaspiro[2.5]oct-5-yl]-3-methylpenta-2,4-dien-1-yl}-2,5-dimethyltetrahydro-2H-pyran-3-yl]amino}-5-oxopent-3-en-2-yl-4-methylpiperazine-1-carboxylate] | 8.25 | 8.75 |  | 7.99
CC(/C=C/[C@@H]1C[C@]2(CO2)C[C@@H](CN)O1)=C\C[C@@H]1O[C@H](C)[C@H](NC(=O)/C=C\[C@H](C)O)C[C@@H]1C [#B139, (2Z,4S)—N-[(2R,3R,5S,6S)-6-{(2E,4E)-5-[(3R,5S,7S)-7-(aminomethyl)-1,6-dioxaspiro[2.5]oct-5-yl]-3-methylpenta-2,4-dien-1-yl}-2,5-dimethyltetrahydro-2H-pyran-3-yl]-4-hydroxypent-2-enamide, acetate salt] | 8.19 | 8.26 |  | 7.87
CC(=O)O[C@@H](C)/C=C\C(=O)N[C@@H]1C[C@H](C)[C@H](C/C=C(C)/C=C/[C@@H]2C[C@]3(CO3)C[C@@H](CN)O2)O[C@@H]1C [#B140, (2S,3Z)-5-{[(2R,3R,5S,6S)-6-{(2E,4E)-5-[(3R,5S,7S)-7-(aminomethyl)-1,6-dioxaspiro[2.5]oct-5-yl]-3-methylpenta-2,4-dien-1-yl}-2,5-dimethyltetrahydro-2H-pyran-3-yl]amino}-5-oxopent-3-en-2-yl acetate, acetate salt] | 8.99 | 9.29 |  | 9.20
CC(=O)O[C@@H](C)/C=C\C(=O)N[C@@H]1C[C@H](C)[C@H](C/C=C(C)/C=C/[C@H]2O[C@H](CC(=O)N[C@H]3CC[C@H](O)CC3)C[C@@]3(CO3)[C@@H]2O)O[C@@H]1C [#B141, (2S,3Z)-5-{[(2R,3R,5S,6S)-6-{(2E,4E)-5-[(3R,4R,5R,7S)-4-hydroxy-7-{2-[(trans-4-hydroxycyclohexyl)amino]-2-oxoethyl}-1,6-dioxaspiro[2.5]oct-5-yl]-3-methylpenta-2,4-dien-1-yl}-2,5-dimethyltetrahydro-2H-pyran-3-yl]amino}-5-oxopent-3-en-2-yl acetate] | 7.96 | 7.96 |  | 7.89
CC(=O)O[C@@H](C)/C=C\C(=O)N[C@@H]1C[C@H](C)[C@H](C/C=C(C)/C=C/[C@H]2O[C@H](CN)C[C@@]3(CO3)[C@@H]2O)O[C@@H]1C [#B147, (2S,3Z)-5-{[(2R,3R,5S,6S)-6-{(2E,4E)-5-[(3R,4R,5R,7S)-7-(aminomethyl)-4-hydroxy-1,6-dioxaspiro[2.5]oct-5-yl]-3-methylpenta-2,4-dien-1-yl}-2,5-dimethyltetrahydro-2H-pyran-3-yl]amino}-5-oxopent-3-en-2-yl acetate, acetate salt] | 8.00 | 8.17 |  | 7.77
CC(=O)O[C@@H](C)/C=C\C(=O)N[C@@H]1C[C@H](C)[C@H](C/C=C(C)/C=C/[C@@H]2C[C@]3(CO3)C[C@@](C)(O)O2)O[C@@H]1C [#NP12, (2S,3Z)-5-{[(2R,3R,5S,6S)-6-{(2E,4E)-5-[(3R,5S,7S)-7-hydroxy-7-methyl-1,6-dioxaspiro[2.5]oct-5-yl]-3-methylpenta-2,4-dien-1-yl}-2,5-dimethyltetrahydro-2H-pyran-3-yl]amino}-5-oxopent-3-en-2-yl acetate] | 7.86 | 8.30 |  | 8.31
